# Assay results taken from the CheMixHub viscosity set.
# ± gives the uncertainty stated by the source.
# Experiment: xn = mol fraction of the nth substance listed
smiles,measurement,setting,value
C[NH2+]C(C)Cc1ccc2c(c1)OCO2.[Cl-] (stereo not drawn) + O,viscosity,"293.15 K, 100 kPa, x1 = 0.001729",1.063 ± 0.022 mPa·s
same,viscosity,"293.15 K, 100 kPa, x1 = 0.003622",1.125 ± 0.023 mPa·s
same,viscosity,"293.15 K, 100 kPa, x1 = 0.00541",1.18 ± 0.025 mPa·s
same,viscosity,"293.15 K, 100 kPa, x1 = 0.006269",1.206 ± 0.025 mPa·s
same,viscosity,"293.15 K, 100 kPa, x1 = 0.0072",1.233 ± 0.026 mPa·s
same,viscosity,"298.15 K, 100 kPa, x1 = 0.001729",0.942 ± 0.02 mPa·s
same,viscosity,"298.15 K, 100 kPa, x1 = 0.003622",0.995 ± 0.021 mPa·s
same,viscosity,"298.15 K, 100 kPa, x1 = 0.00541",1.042 ± 0.022 mPa·s
same,viscosity,"298.15 K, 100 kPa, x1 = 0.006269",1.065 ± 0.022 mPa·s
same,viscosity,"298.15 K, 100 kPa, x1 = 0.0072",1.088 ± 0.023 mPa·s
same,viscosity,"303.15 K, 100 kPa, x1 = 0.001729",0.842 ± 0.018 mPa·s
same,viscosity,"303.15 K, 100 kPa, x1 = 0.003622",0.888 ± 0.019 mPa·s
same,viscosity,"303.15 K, 100 kPa, x1 = 0.00541",0.929 ± 0.019 mPa·s
same,viscosity,"303.15 K, 100 kPa, x1 = 0.006269",0.949 ± 0.02 mPa·s
same,viscosity,"303.15 K, 100 kPa, x1 = 0.0072",0.969 ± 0.02 mPa·s
same,viscosity,"308.15 K, 100 kPa, x1 = 0.001729",0.758 ± 0.016 mPa·s
same,viscosity,"308.15 K, 100 kPa, x1 = 0.003622",0.798 ± 0.017 mPa·s
same,viscosity,"308.15 K, 100 kPa, x1 = 0.00541",0.834 ± 0.017 mPa·s
same,viscosity,"308.15 K, 100 kPa, x1 = 0.006269",0.851 ± 0.018 mPa·s
same,viscosity,"308.15 K, 100 kPa, x1 = 0.0072",0.869 ± 0.018 mPa·s
same,viscosity,"313.15 K, 100 kPa, x1 = 0.001729",0.686 ± 0.014 mPa·s
same,viscosity,"313.15 K, 100 kPa, x1 = 0.003622",0.721 ± 0.015 mPa·s
same,viscosity,"313.15 K, 100 kPa, x1 = 0.00541",0.752 ± 0.016 mPa·s
same,viscosity,"313.15 K, 100 kPa, x1 = 0.006269",0.767 ± 0.016 mPa·s
same,viscosity,"313.15 K, 100 kPa, x1 = 0.0072",0.783 ± 0.016 mPa·s
Cn1c(=O)c2c(ncn2C)n(C)c1=O + O,viscosity,"293.15 K, 100 kPa, x1 = 0.000362",1.007 ± 0.012 mPa·s
same,viscosity,"293.15 K, 100 kPa, x1 = 0.00054",1.01 ± 0.012 mPa·s
same,viscosity,"293.15 K, 100 kPa, x1 = 0.00072",1.013 ± 0.012 mPa·s
same,viscosity,"293.15 K, 100 kPa, x1 = 0.0009",1.018 ± 0.012 mPa·s
same,viscosity,"293.15 K, 100 kPa, x1 = 0.00108",1.022 ± 0.012 mPa·s
same,viscosity,"293.15 K, 100 kPa, x1 = 0.00126",1.027 ± 0.012 mPa·s
same,viscosity,"293.15 K, 100 kPa, x1 = 0.00144",1.031 ± 0.012 mPa·s
same,viscosity,"298.15 K, 100 kPa, x1 = 0.000362",0.892 ± 0.011 mPa·s
same,viscosity,"298.15 K, 100 kPa, x1 = 0.00054",0.897 ± 0.011 mPa·s
same,viscosity,"298.15 K, 100 kPa, x1 = 0.00072",0.901 ± 0.011 mPa·s
same,viscosity,"298.15 K, 100 kPa, x1 = 0.0009",0.903 ± 0.011 mPa·s
same,viscosity,"298.15 K, 100 kPa, x1 = 0.00144",0.916 ± 0.011 mPa·s
same,viscosity,"298.15 K, 101 kPa, x1 = 9.11e-06",0.8903 ± 0.006 mPa·s
same,viscosity,"298.15 K, 101 kPa, x1 = 1.822e-05",0.8906 ± 0.006 mPa·s
same,viscosity,"298.15 K, 101 kPa, x1 = 7.288e-05",0.8912 ± 0.006 mPa·s
same,viscosity,"298.15 K, 101 kPa, x1 = 0.0001457",0.8921 ± 0.006 mPa·s
same,viscosity,"298.15 K, 101 kPa, x1 = 0.0001858",0.8928 ± 0.006 mPa·s
same,viscosity,"298.15 K, 101 kPa, x1 = 0.0002",0.8925 ± 0.025 mPa·s
same,viscosity,"298.15 K, 101 kPa, x1 = 0.0002277",0.8933 ± 0.006 mPa·s
same,viscosity,"298.15 K, 101 kPa, x1 = 0.00045",0.8973 ± 0.025 mPa·s
same,viscosity,"298.15 K, 101 kPa, x1 = 0.0004553",0.8967 ± 0.0061 mPa·s
same,viscosity,"298.15 K, 101 kPa, x1 = 0.000835",0.9028 ± 0.0065 mPa·s
same,viscosity,"298.15 K, 101 kPa, x1 = 0.0009102",0.904 ± 0.0061 mPa·s
same,viscosity,"298.15 K, 101 kPa, x1 = 0.00168",0.9204 ± 0.0066 mPa·s
same,viscosity,"298.15 K, 101 kPa, x1 = 0.001827",0.9238 ± 0.0066 mPa·s
same,viscosity,"303.15 K, 100 kPa, x1 = 0.000362",0.799 ± 0.009 mPa·s
same,viscosity,"303.15 K, 100 kPa, x1 = 0.00054",0.802 ± 0.01 mPa·s
same,viscosity,"303.15 K, 100 kPa, x1 = 0.00072",0.805 ± 0.01 mPa·s
same,viscosity,"303.15 K, 100 kPa, x1 = 0.0009",0.809 ± 0.01 mPa·s
same,viscosity,"303.15 K, 100 kPa, x1 = 0.00108",0.812 ± 0.01 mPa·s
same,viscosity,"303.15 K, 100 kPa, x1 = 0.00126",0.815 ± 0.01 mPa·s
same,viscosity,"303.15 K, 100 kPa, x1 = 0.00144",0.819 ± 0.01 mPa·s
same,viscosity,"308.15 K, 100 kPa, x1 = 0.000362",0.72 ± 0.009 mPa·s
same,viscosity,"308.15 K, 100 kPa, x1 = 0.00072",0.725 ± 0.009 mPa·s
same,viscosity,"308.15 K, 100 kPa, x1 = 0.00144",0.738 ± 0.009 mPa·s
same,viscosity,"308.15 K, 101 kPa, x1 = 0.0002",0.7216 ± 0.024 mPa·s
same,viscosity,"308.15 K, 101 kPa, x1 = 0.000508",0.7219 ± 0.0053 mPa·s
same,viscosity,"308.15 K, 101 kPa, x1 = 0.000835",0.7263 ± 0.0053 mPa·s
same,viscosity,"308.15 K, 101 kPa, x1 = 0.00106",0.7314 ± 0.0054 mPa·s
same,viscosity,"308.15 K, 101 kPa, x1 = 0.00168",0.7421 ± 0.0054 mPa·s
same,viscosity,"308.15 K, 101 kPa, x1 = 0.001827",0.7443 ± 0.0055 mPa·s
same,viscosity,"310.15 K, 101 kPa, x1 = 9.11e-06",0.6928 ± 0.0049 mPa·s
same,viscosity,"310.15 K, 101 kPa, x1 = 1.822e-05",0.6933 ± 0.0049 mPa·s
same,viscosity,"310.15 K, 101 kPa, x1 = 7.288e-05",0.6952 ± 0.0049 mPa·s
same,viscosity,"310.15 K, 101 kPa, x1 = 0.0001457",0.6977 ± 0.0049 mPa·s
same,viscosity,"310.15 K, 101 kPa, x1 = 0.0001858",0.6998 ± 0.0049 mPa·s
same,viscosity,"310.15 K, 101 kPa, x1 = 0.0002277",0.7014 ± 0.005 mPa·s
same,viscosity,"310.15 K, 101 kPa, x1 = 0.0004553",0.7104 ± 0.005 mPa·s
same,viscosity,"310.15 K, 101 kPa, x1 = 0.0009102",0.7283 ± 0.0051 mPa·s
same,viscosity,"313.15 K, 100 kPa, x1 = 0.000362",0.652 ± 0.008 mPa·s
same,viscosity,"313.15 K, 100 kPa, x1 = 0.00054",0.655 ± 0.008 mPa·s
same,viscosity,"313.15 K, 100 kPa, x1 = 0.00072",0.657 ± 0.008 mPa·s
same,viscosity,"313.15 K, 100 kPa, x1 = 0.0009",0.66 ± 0.008 mPa·s
same,viscosity,"313.15 K, 100 kPa, x1 = 0.00108",0.663 ± 0.008 mPa·s
same,viscosity,"313.15 K, 100 kPa, x1 = 0.00126",0.665 ± 0.008 mPa·s
same,viscosity,"313.15 K, 100 kPa, x1 = 0.00144",0.669 ± 0.008 mPa·s
same,viscosity,"318.15 K, 101 kPa, x1 = 0.0002",0.5982 ± 0.024 mPa·s
same,viscosity,"318.15 K, 101 kPa, x1 = 0.000508",0.6031 ± 0.0046 mPa·s
same,viscosity,"318.15 K, 101 kPa, x1 = 0.000835",0.6101 ± 0.0046 mPa·s
same,viscosity,"318.15 K, 101 kPa, x1 = 0.00106",0.6182 ± 0.0047 mPa·s
same,viscosity,"318.15 K, 101 kPa, x1 = 0.00139",0.6272 ± 0.0047 mPa·s
same,viscosity,"318.15 K, 101 kPa, x1 = 0.00168",0.6353 ± 0.0048 mPa·s
same,viscosity,"318.15 K, 101 kPa, x1 = 0.001827",0.6393 ± 0.0048 mPa·s
